{"source": "patent US20100166772A1", "about": "“ANTIGEN-BINDING PROTEINS TARGETING S. AUREUS ORF0657n” (priority 2007, published 2010)", "tested_on": "S. aureus Becker", "test": "Combination treatment vancomycin and mAb in cannulated rats, catheter bacteria load", "type": "in vivo", "details": "for Catheter CFU Exp#1 / Catheter CFU Exp#2: 24 hours", "procedure": "Cannulated rats were given vancomycin (20 mpk) sub. cu. at 1 hour (1 H) prior to iv challenge with 2−4×10^9 CFU of S. aureus Becker. At 1 H post challenge, the rats were injected with 6 mg/rat of either the mAb CS-D6, an isotype control mAb 20C2HA, or PBS. At 24 hours post challenge, the animals were sacrificed, the jugular vein catheters harvested and evaluated for the bacteria load on the catheter. Evaluation of catheters was performed by placement in selective broth medium, and outgrowth on the Piccolo incubation system. Outgrowth was compared to standard curves of S. aureus growth under the same conditions to calculate the number of CFU on the experimental catheters. In the first set of experiments (Table 15), small numbers of animals were used to test the system. In the second set of experiments (Table 16), larger numbers of rats were used. […] This model was designed to simulate a clinical situation in which a patient is undergoing surgery or other invasive procedure, and getting an empiric or prophylactic antibiotic. In the model, the mAb was injected after bacteria exposure, simulating adjunctive mAb treatment for infection during surgery.", "key": {"[1]": {"details": "Table 15, individual rats, vancomycin 20 mpk sub. cu. 1 H prior, 6 mg/rat mAb 1 H post challenge"}, "[2]": {"details": "Table 16, individual rats, larger numbers of rats, vancomycin 20 mpk, 6 mg/rat mAb"}}, "note": "Several values for one entry are separate records, joined by “and”; a condition that tells them apart may be missing. Identical values can stand only once.", "data": [{"smiles": "CN[C@H](CC(C)C)C(=O)N[C@H]1C(=O)N[C@@H](CC(N)=O)C(=O)N[C@H]2C(=O)N[C@H]3C(=O)N[C@H](C(=O)N[C@H](C(=O)O)c4cc(O)cc(O)c4-c4cc3ccc4O)[C@H](O)c3ccc(c(Cl)c3)Oc3cc2cc(c3O[C@@H]2O[C@H](CO)[C@@H](O)[C@H](O)[C@H]2O[C@H]2C[C@](C)(N)[C@H](O)[C@H](C)O2)Oc2ccc(cc2Cl)[C@H]1O", "note": "[Vancomycin + PBS, vancomycin]", "values": [{"measurement": "Catheter CFU Exp#1", "setting": "[1]", "result": "0 CFU and 38,725,264 CFU"}, {"measurement": "Catheter CFU Exp#2", "setting": "[1]", "result": "0 CFU (3×) and 217 CFU"}, {"measurement": "Catheter CFU Exp#1", "setting": "[2]", "result": "64 CFU and 309 CFU and 973 CFU and 5,015 CFU and 5,108 CFU and 7,353,005 CFU"}, {"measurement": "Catheter CFU Exp#2", "setting": "[2]", "result": "0 CFU and 63 CFU (2×) and 291 CFU and 6,517,926 CFU and 7,829,527 CFU"}, {"measurement": "Catheter CFU Geo mean", "setting": "Table 16, catheters with no outgrowth assigned value of 10", "result": "3,368 CFU"}, {"measurement": "Catheter CFU Geo mean", "setting": "in vivo", "result": 45, "unit": "CFU"}]}]}
